Key:
[1] = test system: spontaneous uterine contractions; test: Inhibition of spontaneous uterine contractions in anesthetized late-term pregnant rat; format: in vivo; details: oral route, 10, 30 or 60 mg/kg
Description: Late-term pregnant (certified at days 19-21 of pregnancy) Sprague Dawley CD (SD) BR female rats (Charles River, Calco, Italy), weighing 350-400 g were anesthetized with urethane (1.05 g/kg, i.p.) and placed on a homeothermic operating table. A midline incision at the hypogastrium level was made, one pregnant uterine horn exposed and its tubal end (near the ovary) was closed by a ligature with surgical silk. Corresponding to the fetus close to the ovary, the uterine-horn wall was incised taking care not to injure the adjacent placenta and PE240 tubing with a latex balloon (9 mm length when empty, capacity 0.1 mL; Radnoti, Monrovia, Calif., USA) on the top was inserted into the lumen and secured to the uterine wall with surgical silk. After filling the internal cavity of the latex balloon with 0.1 mL of sterile physiological saline solution, the catheter was connected to an amplifying/recording system (MacLab, ADInstruments Pty Ltd, Castle Hill, Australia) via a P231D Gould-Statham pressure transducer. […] After the surgical preparation, a 30-min stabilization period was observed and then the effects of increasing doses of compounds of the present invention (given as 10-min i.v. infusion, bolus i.v. or p.o.) were evaluated by measuring the resulting uterine contractions. For the i.v. administration (infusion or bolus) the uterine contractile activity was quantified by calculating the AUC during the 10-min injection period. The percent variation of the AUC values relative to the spontaneous uterine response observed after each compound administration was calculated in comparison to the value recorded before the first dose-administration (basal value). The effect of test compounds of the present invention was evaluated by comparing pre- and post-treatment luminal uterine pressure values. […] Statistical differences between treatment groups at each time-point were determined by using one-way ANOVA followed by Tukey test. […] Contractions were continuously recorded and area-under-the-curve (AUC) integrated over 10-min time intervals.

[2] = Isomeric interconversion in oral and intravenous dose formulations (HPLC); format: physicochemical; details: oral (Labrasol:water 1:1) and intravenous (NP3S) dose formulations, pre- and post-dose
[3] = Qualitative solubility/crystallisation tests on 15 mg scale; format: physicochemical
[4] = nominal 30 mg/kg
Protocol: The animals used in this study were Sprague-Dawley, Crl: CD®BR albino rats. All animals were supplied by Charles River UK Ltd (Margate, Kent, UK). Animals were in the weight range 200-260 g and were approximately 2 months old. Rats were given a unique identity number and were identified by unique tail markings plus cage location.
The dose groups were as follows: 4 female were given an oral dose and 4 female were given an intravenous dose.
Dose formulations were prepared in an appropriate matrix; intravenous doses were prepared in NP3S, whilst oral doses were prepared in Labrasol:water (1:1 v/v).

SMILES: CO/N=C1\C[C@@H](CO)N(C(=O)c2ccc(-c3ccccc3C)cc2)C1 [(3E,5S)-5-(hydroxymethyl)-1-[(2′-methyl-1,1′-biphenyl-4-yl)carbonyl]pyrrolidin-3-one O-methyloxime, reference compound]
- inhibition of uterine contraction (in words) ([1]; any time during the 170-180 minutes observation): no inhibition of uterine contraction

SMILES: CO/N=C1/C[C@@H](CO)N(C(=O)c2ccc(-c3ccccc3C)cc2)C1 [(3Z,5S)-5-(hydroxymethyl)-1-[(2′-methyl-1,1′-biphenyl-4-yl)carbonyl]pyrrolidin-3-one O-methyloxime]
- interconversion to E-isomer during dose preparation or administration [2]: no detectable interconversion
- Uterine contractions inhibition ([1]; 5 to 15 min after administration): 15%
- Uterine contractions inhibition ([1]; 170-180 minutes after administration): 42%
- Dissolves in: ([3]; solvent DIPE, hot): 40 vol
- Dissolves in: ([3]; solvent IPA, hot): 4 vol
- Dissolves in: ([3]; solvent MIBK, hot): 4 vol
- Dissolves in: ([3]; solvent THF, cold): 4 vol
- Dissolves in: ([3]; solvent heptanes): insoluble in 20 vol
- Dissolves in: ([3]; solvent tBuOH, hot): 6 vol
- Dissolves in: ([3]; solvent toluene, cold): 2 vol

SMILES: CO/N=C1/C[C@@H](CO)N(C(=O)c2ccc(-c3ccccc3C)cc2)C1 [[^14C]-(3Z,5S)-5-(hydroxymethyl)-1-[(2′-methyl-1,1′-biphenyl-4-yl)carbonyl]pyrrolidin-3-one O-methyloxime]
- isomeric interconversion in vivo ([4]; female rats, oral or intravenous dose): no detectable isomeric interconversion
- presence of [14C]-E-isomer in plasma ([4]; rat plasma up to 6 hours after oral or intravenous administration): no evidence

Source: US9670155B2, “Pyrrolidine derivatives as oxytocin/vasopressin V1a receptors antagonists” (ObsEva S.A., priority 2013, dated 2017)
